Experimental data taken from patent publication US4086349A, “Quinolopyran-4-one-2-carboxylic acid derivatives and salts thereof as novel compounds and as medicines for treatment of allergic asthma” (Mitsubishi Yuka Pharmaceutical Co., Ltd., priority 1975, dated 1978).

Assays:
[1] = test system: passive cutaneous anaphylaxis; experiment: Passive cutaneous anaphylaxis tests (PCA) on rats; assay type: in vivo, SLC-strain Wistar rat; conditions: intravenous, rat PCA; for inhibition in vivo at 0.3 mg/kg / inhibition in vivo at 3 mg/kg: read-out: Inhibition rate
Method: To test the effectiveness of compounds of this invention for treatment of allergic asthma, evaluation of antiallergy effect was carried out by passive cutaneous anaphylaxis tests (PCA) on rats.
Rats (SLC-strain Wistar rat) were immunized with egg albumin which had been recrystallized five times and Bodetella pertussis vaccine, and, after 13 days, serum was taken from these rats.
This serum was diluted to 1/128 and intradermally injected into the back of rats. 48 hours thereafter, the compounds of the invention as set forth in the following table in the form of salts thereof with tris (hydroxymethyl)methyl ammonium dissolved in saline in the indicated quantities as the salts were administered intravenously, and 5 minutes thereafter, saline in which egg albumin and Evans Blue were dissolved was challenged intravenously. After 30 minutes, the animals were killed and the skins were removed and the quantity of the Evans Blue which has leaked as a result of the antigen antibody reaction was extracted through the use of Na2 SO4 solution and acetone, colorimetry being carried out at 620 mμ.

allergic asthma = experiment: Classification in view of activity on treatment of allergic asthma; assay type: in vivo; conditions: first group most preferable, second more preferable, third preferable
[2] = 50% lethal dose (LD50), i.v., mouse; conditions: in vivo, iv
[3] = dose 0.3 mg/kg (quantity as the tris (hydroxymethyl) methyl ammonium salt)
[4] = dose 3 mg/kg (quantity as the tris (hydroxymethyl) methyl ammonium salt)

Cc1ccc2c(nc(O)c3c(=O)cc(C(=O)O)oc32)c1C [Compound 1, 7,8-dimethyl-5-hydroxy-quinolo [4,3-b]-pyran-4-one-2-carboxylic acid]
inhibition in vivo at 0.3 mg/kg [1, 3]: 98% | inhibition in vivo at 3 mg/kg [1, 4]: 100% | preference group in view of activity on treatment of allergic asthma (allergic asthma): most preferable | LD50 [2]: 560 mg/kg | selectivity ratio [2]: 20000

Cc1ccc2nc(O)c3c(=O)cc(C(=O)O)oc3c2c1 [Compound 2, 9-methyl-5-hydroxy-quinolo [4,3-b]-pyran-4-one-2-carboxylic acid]
inhibition in vivo at 0.3 mg/kg [1, 3]: 63% | inhibition in vivo at 3 mg/kg [1, 4]: 100% | preference group in view of activity on treatment of allergic asthma (allergic asthma): most preferable

Cc1cccc2c1nc(O)c1c(=O)cc(C(=O)O)oc12 [Compound 3, 7-methyl-5-hydroxy-quinolo [4,3-b]-pyran-4-one-2-carboxylic acid]
inhibition in vivo at 0.3 mg/kg [1, 3]: 27% | inhibition in vivo at 3 mg/kg [1, 4]: 100%

COc1ccc2nc(O)c3c(=O)cc(C(=O)O)oc3c2c1 [Compound 4, 9-methoxy-5-hydroxy-quinolo[4,3-b]-pyran-4-one-2-carboxylic acid]
inhibition in vivo at 0.3 mg/kg [1, 3]: 38% | inhibition in vivo at 3 mg/kg [1, 4]: 98%

COc1cccc2c1nc(O)c1c(=O)cc(C(=O)O)oc12 [Compound 5, 7-methoxy-5-hydroxy-quinolo[4,3-b]-pyran-4-one-2-carboxylic acid]
inhibition in vivo at 0.3 mg/kg [1, 3]: 37% | inhibition in vivo at 3 mg/kg [1, 4]: 98%

CCCCc1ccc2nc(O)c3c(=O)cc(C(=O)O)oc3c2c1 [Compound 6, 9-n-butyl-5-hydroxy-quinolo[4,3-b]-pyran-4-one-2-carboxylic acid]
inhibition in vivo at 0.3 mg/kg [1, 3]: 26% | inhibition in vivo at 3 mg/kg [1, 4]: 94%

O=C(O)c1cc(=O)c2c(O)nc3ccc(Cl)cc3c2o1 [Compound 7, 9-chloro-5-hydroxy-quinolo[4,3-b]-pyran-4-one-2-carboxylic acid]
inhibition in vivo at 0.3 mg/kg [1, 3]: 67% | inhibition in vivo at 3 mg/kg [1, 4]: 100% | preference group in view of activity on treatment of allergic asthma (allergic asthma): most preferable

O=C(O)c1cc(=O)c2c(O)nc3ccc(OCc4ccccc4)cc3c2o1 [Compound 8, 9-benzyloxy-5-hydroxy-quinolo[4,3-b]-pyran-4-one-2-carboxylic acid]
inhibition in vivo at 0.3 mg/kg [1, 3]: 34% | inhibition in vivo at 3 mg/kg [1, 4]: 96% | preference group in view of activity on treatment of allergic asthma (allergic asthma): more preferable

CCOC(=O)c1ccc2nc(O)c3c(=O)cc(C(=O)O)oc3c2c1 [Compound 9, 9-ethoxycarbonyl-5-hydroxy-quinolo[4,3-b]-pyran-4-one-2-carboxylic acid]
inhibition in vivo at 0.3 mg/kg [1, 3]: 39% | inhibition in vivo at 3 mg/kg [1, 4]: 100% | preference group in view of activity on treatment of allergic asthma (allergic asthma): more preferable

O=C(O)c1cc(=O)c2c(O)nc3ccc(-c4ccccc4)cc3c2o1 [Compound 10, 9-phenyl-5-hydroxy-quinolo[4,3-b]-pyran-4-one-2-carboxylic acid]
inhibition in vivo at 3 mg/kg [1, 4]: 90% | preference group in view of activity on treatment of allergic asthma (allergic asthma): preferable

Cc1c(Cl)ccc2c1nc(O)c1c(=O)cc(C(=O)O)oc12 [Compound 11, 7-methyl-8-chloro-5-hydroxy-quinolo[4,3-b]-pyran-4-one-2-carboxylic acid]
Inhibition rate [1, 3]: 26% | Inhibition rate [1, 4]: 87% | preference group in view of activity on treatment of allergic asthma (allergic asthma): more preferable

Cc1cc(C)c2nc(O)c3c(=O)cc(C(=O)O)oc3c2c1 [Compound 12, 7,9-dimethyl-5-hydroxy-quinolo[4,3-b]-pyran-4-one-2-carboxylic acid]
inhibition in vivo at 3 mg/kg [1, 4]: 90%

O=C(O)c1cc(=O)c2c(O)nc3ccc(Br)cc3c2o1 [Compound 13, 9-bromo-5-hydroxy-quinolo[4,3-b]-pyran-4-one-2-carboxylic acid]
inhibition in vivo at 3 mg/kg [1, 4]: 90%

O=C(O)c1cc(=O)c2c(O)nc3ccc(F)cc3c2o1 [Compound 14, 9-fluoro-5-hydroxy-quinolo[4,3-b]-pyran-4-one-2-carboxylic acid]
inhibition in vivo at 3 mg/kg [1, 4]: 90%

COc1ccc2c(c1)nc(O)c1c(=O)cc(C(=O)O)oc12 [Compound 15, 8-methoxy-5-hydroxy-quinolo[4,3-b]-pyran-4-one-2-carboxylic acid]
inhibition in vivo at 3 mg/kg [1, 4]: 90%

COc1cc2nc(O)c3c(=O)cc(C(=O)O)oc3c2cc1OC [Compound 16, 8,9-dimethoxy-5-hydroxy-quinolo[4,3-b]-pyran-4-one-2-carboxylic acid]
inhibition in vivo at 3 mg/kg [1, 4]: 90%

CCc1ccc2nc(O)c3c(=O)cc(C(=O)O)oc3c2c1 [Compound 17, 9-ethyl-5-hydroxy-quinolo[4,3-b]-pyran-4-one-2-carboxylic acid]
inhibition in vivo at 3 mg/kg [1, 4]: 90%
